Measurements as given in US7964623B2, “Tricyclic benzopyrane compound” (Nissan Chemical Industries Ltd., priority 2004, dated 2011).

Tested on: atrium
Test: Effects on the atrial effective refractory period (S1-S2 extrastimulus technique during bilateral vagal nerve stimulation) in anesthetized beagles
Format: in vivo
Details: intravenous, 0.3 mg/kg, from 5 minutes after administration, basic cycle length 300 msec
Method: Effects on the Effective Refractory Period
Beagles were anesthetized with pentobarbital sodium and thoracotomy was done along the median line under a respirator and the incision was made on the pericardium to expose the heart. An electrocardiogram (ECG) was recorded using bipolar electrodes attached to the surface of the right atrial free wall, right atrial auricle, and right ventricular free wall. The vagal nerves were stimulated using an electrostimulation device with Nichrome wires inserted into the vagal nerves in the neck bilaterally. The conditions for electrostimulation to the vagal nerves were set such that the RR intervals on ECG were prolonged by about 100 msec compared with those before the stimulation was started.
Atrial and ventricular effective refractory periods were determined by S1-S2 extrastimulus technique at basic cycle length of 300 msec during bilateral vagal nerve stimulation, using programmable electric stimulator. A train of 10 basic stimuli (S1) was followed by a premature extrastimulus (S2) at 2 times diastolic threshold.
For evaluation of drug effects, the atrial and ventricular effective refractory periods were determined before drug administration, then respective compound was administrated intravenously at the dose of 0.3 mg/kg or 0.6 mg/kg, and the atrial and ventricular effective refractory periods were determined from 5 minutes after the administration.
The results were shown as the prolongation time on the atrial and ventricular effective refractory periods, i.e. [effective refractory period after drug administration]−[effective refractory period before drug administration] (msec).

Row | Compound | Atrial Refractory Period (prolongation time on the atrial effective refractory period) [ms]
1 | Cc1cc(Cl)nc2cc3c(cc12)OC(C)(C)[C@H](O)[C@H]3NCCc1cccnc1 (relative stereo) [Synthesis Example 41, (3R*,4S*)-7-chloro-2,2,9-trimethyl-4-{[2-(3-pyridyl)ethyl]amino}-3,4-dihydro-2H-pyrano[2,3-g]quinolin-3-ol] | 31
2 | CN1C(=O)COc2cc3c(cc21)OC(C)(C)[C@H](O)[C@H]3NCCc1ccccc1.Cl (relative stereo) [Synthesis Example 73, (7R*,8S*)-7-hydroxy-4,6,6-trimethyl-8-(2-phanylethylamino)-4,6,7,8-tetrahydro-1,5-dioxa-4-aza-anthracene-3-one hydrochloride] | 31
3 | Cc1cc(Cl)nc2cc3c(cc12)OC(C)(C)[C@H](O)[C@H]3NCCC1CCCC1 (relative stereo) [Synthesis Example 47, (3R*,4S*)-7-chloro-4-[2-(cyclopentylethyl)amino]-2,2,9-trimethyl-3,4-dihydro-2H-pyrano[2,3-g]quinolin-3-ol] | 24
4 | Cc1cc(Cl)nc2cc3c(cc12)OC(C)(C)[C@H](O)[C@H]3NCCc1ccc(F)cc1 (relative stereo) [Synthesis Example 23, (3R*,4S*)-7-chloro-4-{[2-(4-fluorophenyl)ethyl]amino}-2,2,9-trimethyl-3,4-dihydro-2H-pyrano[2,3-g]quinolin-3-ol] | 22
5 | CC1(C)Oc2cc3nccnc3cc2[C@H](NCCc2ccc(F)cc2)[C@H]1O.Cl (relative stereo) [Synthesis Example 61, (3R*,4S*)-9-{[2-(4-fluorophenyl)ethyl]amino}-7,7-dimethyl-8,9-dihydro-7H-pyrano[2,3-g]quinoxalin-8-ol hydrochloride] | 20
6 | CC1(C)Oc2cc3nccnc3cc2[C@H](NCCc2ccccc2)[C@H]1O.O=C(O)/C=C\C(=O)O (relative stereo) [Synthesis Example 59, (3R*,4S*)-7,7-dimethyl-9-[(2-phenylethyl)amino]-8,9-dihydro-7H-pyrano[2,3-g]quinoxalin-8-ol 1 maleate] | 22
7 | Cc1cc(Cl)nc2cc3c(cc12)OC(C)(C)[C@H](O)[C@H]3NCCC1=CCCC1 (relative stereo) [Synthesis Example 48, (3R*,4S*)-7-chloro-4-[2-(1-cyclopentenylethyl)amino]-2,2,9-trimethyl-3,4-dihydro-2H-pyrano[2,3-g]quinolin-3-ol] | 23
8 | Cc1cc(Cl)nc2cc3c(cc12)OC(C)(C)[C@H](O)[C@H]3NCCc1ccc(N)cc1 (relative stereo) [Synthesis Example 26, (3R*,4S*)-4-{([2-(4-aminophenyl)ethyl]amino}-7-chloro-2,2,9-trimethyl-3,4-dihydro-2H-pyrano[2,3-g]quinolin-3-ol] | 24
9 | Cc1cc(CO)nc2cc3c(cc12)OC(C)(C)[C@H](O)[C@H]3NCCc1ccccc1.O=C(O)/C=C\C(=O)O (relative stereo) [Synthesis Example 18, (3R*,4S*)-7-hydroxymethyl-2,2,9-trimethyl-4-[(2-phenylethyl)amino]-3,4-dihydro-2H-pyrano[2,3-g]quinolin-3-ol 1 maleate] | 27
10 | Cc1cc(Cl)nc2cc3c(cc12)OC(C)(C)[C@H](O)[C@H]3NCCc1ccccc1.O=C(O)/C=C\C(=O)O (relative stereo) [Synthesis Example 19, (3R*,4S*)-7-chloro-2,2,9-trimethyl-4-[(2-phenylethyl)amino]-3,4-dihydro-2H-pyrano[2,3-g]quinolin-3-ol 1 maleate] | 26
11 | Cc1cc(Cl)nc2cc3c(cc12)OC(C)(C)[C@H](O)[C@H]3NCC(O)c1ccccc1 (relative stereo) [Synthesis Example 27, (3R*,4S*)-7-chloro-4-[(2-hydroxy-2-phenylethyl)amino]-2,2,9-trimethyl-3,4-dihydro-2H-pyrano[2,3-g]quinolin-3-ol] | 32
12 | Cc1cc(Cl)nc2cc3c(cc12)OC(C)(C)[C@H](O)[C@H]3NCCc1ccccc1F (relative stereo) [Synthesis Example 24, (3R*,4S*)-7-chloro-4-{[2-(2-fluorophenyl)ethyl]amino}-2,2,9-trimethyl-3,4-dihydro-2H-pyrano[2,3-g]quinolin-3-ol] | 23
13 | CC1(C)Oc2cc3nccnc3cc2[C@H](NCCc2ccccc2F)[C@H]1O.Cl (relative stereo) [Synthesis Example 60, (3R*,4S*)-4-{[2-(2-fluorophenyl)ethyl]amino}-2,2-dimethyl-3,4-dihydro-2H-pyrano[2,3-g]quinoxalin-3-ol hydrochloride] | 22
14 | Cc1cc(Cl)nc2cc3c(cc12)OC(C)(C)[C@H](O)[C@H]3NCCc1ccc(Cl)cc1 (relative stereo) [Synthesis Example 25, (3R*,4S*)-7-chloro-4-{[2-(4-chlorophenyl)ethyl]amino}-2,2,9-trimethyl-3,4-dihydro-2H-pyrano[2,3-g]quinolin-3-ol] | 27
15 | Cc1cc(C#N)nc2cc3c(cc12)OC(C)(C)[C@H](O)[C@H]3NCCc1ccccc1.O=C(O)/C=C\C(=O)O (relative stereo) [Synthesis Example 14, (3R*,4S*)-3-hydroxy-2,2,9-trimethyl-4-[(2-phenylethyl)amino]-3,4-dihydro-2H-pyrano[2,3-g]quinoline-7-carbonitrile 1 maleate] | 27
16 | CCCC(O)CN[C@H]1c2cc3nc(Cl)cc(C)c3cc2OC(C)(C)[C@@H]1O (relative stereo) [Synthesis Example 58, (3R*,4S*)-7-chloro-4-[(2-hydroxypentyl)amino]-2,2,9-trimethyl-3,4-dihydro-2H-pyrano[2,3-g]quinolin-3-ol] | 28
17 | CC1(C)Oc2cc3c(cc2[C@H](NCCc2ccccc2)[C@H]1O)OCC(=O)N3 (relative stereo) [Synthesis Example 71, (7R*,8S*)-7-hydroxy-6,6-dimethyl-8-(2-phenylethyl)amino]-4,6,7,8-tetrahydro-1,5-dioxa-4-aza-anthracene-3-one] | 31
18 | CCCCCN[C@H]1c2cc3nc(Cl)cc(C)c3cc2OC(C)(C)[C@@H]1O.Cl (relative stereo) [Synthesis Example 52, (3R*,4S*)-7-chloro-2,2,9-trimethyl-4-(pentylamino)-3,4-dihydro-2H-pyrano[2,3-g]quinolin-3-ol hydrochloride] | 28

Same assay, conditions: intravenous, 0.6 mg/kg, from 5 minutes after administration, basic cycle length 300 msec

Row | Compound | Atrial Refractory Period (prolongation time on the atrial effective refractory period) [ms]
19 | Cc1ccc2cc3c(cc2n1)C(NCCc1ccccc1)C(O)C(C)(C)O3.O=C(O)/C=C\C(=O)O (racemic) [Synthesis Example 4, (±)-trans-2,2,7-Trimethyl-4-[(2-phenylethyl)amino]-3,4-dihydro-2H-pyrano[2,3-g]quinolin-3-ol 3/2 maleate] | 30
20 | CC1(C)Oc2cc3c(cc2C(NCCc2ccccc2)C1O)NC(=O)CO3 (stereo not shown) [Synthesis Example 74, 7-Hydroxy-6,6-dimethyl-8-(2-phenylethylamino)-7,8-dihydro-1H,6H-4,5-dioxa-1-aza-anthracene-2-one] | 25

Tested on: not given
Test: not given
Details: not given

Row | melting point | Compound
21 | 215 to 216 °C (dec.) | Cc1cc(C)c2cc3c(cc2n1)[C@@H](NCCc1ccccc1)[C@H](O)C(C)(C)O3.O=C(O)/C=C\C(=O)O (relative stereo) [Synthesis Example 51, (3R*,4R*)-2,2,7,9-tetramethyl-4-[(2-phenethyl)amino]-3,4-dihydro-2H-pyrano[2,3-g]quinolin-3-ol 1 maleate]
22 | 136 to 140 °C | Cc1cc(CN)nc2cc3c(cc12)OC(C)(C)[C@H](O)[C@H]3NCCc1ccccc1.O=C(O)/C=C\C(=O)O (relative stereo) [Synthesis Example 83, (3R*,4S*)-7-aminomethyl-2,2,9-trimethyl-4-[(2-phenylethyl)amino]-3,4-dihydro-2H-pyrano[2,3-g]quinolin-3-ol 2 maleate]
23 | 318 to 320 °C (dec.) | Cc1cc(Cl)nc2cc3c(cc12)OC(C)(C)[C@H](O)[C@H]3NCCC1CCOCC1.Cl (relative stereo)
24 | 197 to 199 °C | CC1(C)Oc2ccc3nc(C(N)=O)ccc3c2[C@@H](NCCc2ccccc2)[C@@H]1O (racemic) [Synthesis Example 11, (±)-trans-2-Hydroxy-3,3-dimethyl-1-[(2-phenylethyl)amino]-2,3-dihydro-1H-pyrano[3,2-f]quinoline-8-carboxamide]
25 | 189 to 192 °C (dec.) | Cc1cnc2cc3c(cc2n1)OC(C)(C)[C@H](O)[C@H]3NCCc1ccccc1.O=C(O)/C=C\C(=O)O (relative stereo) [Synthesis Example 68, (3R*,4S*)-2,2,8-trimethyl-4-[(2-phenylethyl)amino]-3,4-dihydro-2H-pyrano[2,3-g]quinoxalin-3-ol 1 maleate]
